Values joined by “and” are separate entries in the source; they are usually repeats but may differ in a detail not shown here. Identical values can stand only once. Toxic doses and inconclusive results are not listed. Cut-off read from the data, not from the text of the source: active = T/C of 150% or more; inactive = T/C below 125%.
System: L1210 leukemia ip in BDF1 mice, survival T/C
Experiment: NCI In Vivo Anticancer Drug Screen. Data for tumor model L1210 Leukemia (intraperitoneal) in B6D2F1 (BDF1) mice
Details: endpoint: mean survival time, higher = longer survival
In short: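 Each compound was tested against a transplantable tumor grown in mice. The endpoint was survival, with treated animals benchmarked against vehicle controls as a simple ratio.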

[1] = dose: 100.0 mg/kg/injection, schedule: Q04DX003 (ip), vehicle: saline
[2] = dose: 200.0 mg/kg/injection, schedule: Q04DX003 (ip), vehicle: saline
[3] = dose: 400.0 mg/kg/injection, schedule: Q04DX003 (ip), vehicle: saline
[4] = dose: 50.0 mg/kg/injection, schedule: Q01DX009 (ip), vehicle: saline with Tween-80
[5] = dose: 100.0 mg/kg/injection, schedule: Q01DX001 (ip), vehicle: saline with Tween-80
[6] = dose: 100.0 mg/kg/injection, schedule: Q01DX009 (ip), vehicle: saline with Tween-80
[7] = dose: 100.0 mg/kg/injection, schedule: Q04DX003 (ip), vehicle: saline with Tween-80
[8] = dose: 200.0 mg/kg/injection, schedule: Q01DX001 (ip), vehicle: saline with Tween-80
[9] = dose: 200.0 mg/kg/injection, schedule: Q01DX009 (ip), vehicle: saline with Tween-80
[10] = dose: 200.0 mg/kg/injection, schedule: Q04DX003 (ip), vehicle: saline with Tween-80
[11] = dose: 100.0 mg/kg/injection, schedule: Q01DX001 (ip), vehicle: saline
[12] = dose: 200.0 mg/kg/injection, schedule: Q01DX001 (ip), vehicle: saline
[13] = dose: 400.0 mg/kg/injection, schedule: Q04DX003 (ip), vehicle: saline with Tween-80
[14] = dose: 400.0 mg/kg/injection, schedule: Q01DX009 (ip), vehicle: saline with Tween-80
[15] = dose: 100.0 mg/kg/injection, schedule: Q01DX001 (ip), vehicle: other
[16] = dose: 100.0 mg/kg/injection, schedule: Q04DX003 (ip), vehicle: Klucel (hydroxypropylcellulose) (HPC)
[17] = dose: 200.0 mg/kg/injection, schedule: Q01DX001 (ip), vehicle: other
[18] = dose: 200.0 mg/kg/injection, schedule: Q04DX003 (ip), vehicle: Klucel (hydroxypropylcellulose) (HPC)
[19] = dose: 400.0 mg/kg/injection, schedule: Q01DX001 (ip), vehicle: other
[20] = dose: 400.0 mg/kg/injection, schedule: Q04DX003 (ip), vehicle: Klucel (hydroxypropylcellulose) (HPC)
[21] = dose: 100.0 mg/kg/injection, schedule: Q01DX009 (ip), vehicle: Klucel (hydroxypropylcellulose) (HPC)
[22] = dose: 200.0 mg/kg/injection, schedule: Q01DX009 (ip), vehicle: Klucel (hydroxypropylcellulose) (HPC)
[23] = dose: 400.0 mg/kg/injection, schedule: Q01DX009 (ip), vehicle: Klucel (hydroxypropylcellulose) (HPC)
[24] = dose: 400.0 mg/kg/injection, schedule: Q01DX001 (ip), vehicle: saline

Measured: T/C

COC1=NS(=O)(=O)C2(O1)c1ccccc1-c1ccccc12
inactive: dose: 100.0 mg/kg/injection, schedule: Q04DX002 (ip), vehicle: Klucel (hydroxypropylcellulose) (HPC) 96 % of control | dose: 200.0 mg/kg/injection, schedule: Q04DX002 (ip), vehicle: Klucel (hydroxypropylcellulose) (HPC) 96 % of control | dose: 400.0 mg/kg/injection, schedule: Q04DX002 (ip), vehicle: Klucel (hydroxypropylcellulose) (HPC) 116 % of control

COc1ccc(C(=O)c2ccc(OC)c(OC)c2C(=O)O)cc1
inactive: [1] 106 % of control | [2] 114 % of control | [3] 103 % of control

CCCSc1nccc2n[nH]nc12
inactive: [4] 95 % of control | dose: 50.0 mg/kg/injection, schedule: Q04DX003 (ip), vehicle: saline with Tween-80 98 % of control | [5] 90 % of control | [6] 93 % of control | [7] 96 % of control | [8] 95 % of control | [9] 95 % of control | [10] 100 % of control

C[N+](C)(C)/N=C1\CC2CCC1C2 (stereo not drawn)
inactive: [11] 98 % of control | [12] 101 % of control

C1CC2C3CCC(C3)C2C1 (stereo not drawn)
inactive: [7] 94 % of control | [10] 90 % of control | [13] 97 % of control

COC(OC)c1[nH]c(=S)[nH]c(=O)c1Cc1ccc(-c2ccccc2)cc1
inactive: [7] 101 % of control | [10] 100 % of control | [13] 95 % of control

O=C(COc1ccccc1)NC(=S)Nc1ccc(C(=O)O)cc1
inactive: [5] 97 % of control | [6] 102 % of control and 89 % of control | dose: 100.0 mg/kg/injection, schedule: Q04DX002 (ip), vehicle: saline with Tween-80 97 % of control and 104 % of control | [8] 95 % of control | [9] 105 % of control and 86 % of control | dose: 200.0 mg/kg/injection, schedule: Q04DX002 (ip), vehicle: saline with Tween-80 114 % of control and 90 % of control | dose: 400.0 mg/kg/injection, schedule: Q01DX001 (ip), vehicle: saline with Tween-80 101 % of control | [14] 97 % of control and 89 % of control | dose: 400.0 mg/kg/injection, schedule: Q04DX002 (ip), vehicle: saline with Tween-80 107 % of control and 90 % of control

NNc1nnnc2ccccc12
inactive: dose: 20.0 mg/kg/injection, schedule: Q01DX001 (ip), vehicle: Klucel (hydroxypropylcellulose) (HPC) 108 % of control

CCCOP(=O)(CCl)OCCC
inactive: [1] 101 % of control | [2] 104 % of control | [3] 101 % of control

CC(=O)Oc1ccc(Cl)cc1/C=C\C=O
inactive: [11] 100 % of control | [12] 101 % of control

COC(=O)c1ccc2c(c1)NP(=O)(c1ccccc1)S2 (stereo not drawn)
inactive: dose: 75.0 mg/kg/injection, schedule: Q01DX001 (ip), vehicle: saline 98 % of control | dose: 150.0 mg/kg/injection, schedule: Q01DX001 (ip), vehicle: saline 104 % of control | dose: 300.0 mg/kg/injection, schedule: Q01DX001 (ip), vehicle: saline 98 % of control

O=C1c2ccccc2C(=O)N1Cc1ccc([N+](=O)[O-])cc1
inactive: [15] 96 % of control | [16] 103 % of control | [17] 87 % of control | [18] 101 % of control | [19] 95 % of control | [20] 97 % of control

Cc1cc([N+](=O)[O-])ccn1
inactive: [6] 94 % of control | [9] 93 % of control

CC(=O)OC1CCC2(C)C3CCC4(C)C(c5ccc(=O)oc5)CC5OC54C3CCC2(O)C1 (stereo not drawn)
inactive: dose: 1.0 mg/kg/injection, schedule: Q01DX001 (sc), vehicle: steriod suspending solution 98 % of control | dose: 2.0 mg/kg/injection, schedule: Q01DX001 (sc), vehicle: steriod suspending solution 96 % of control | dose: 4.0 mg/kg/injection, schedule: Q01DX001 (sc), vehicle: steriod suspending solution 96 % of control | dose: 8.0 mg/kg/injection, schedule: Q01DX001 (sc), vehicle: steriod suspending solution 107 % of control | dose: 12.0 mg/kg/injection, schedule: Q01DX001 (sc), vehicle: steriod suspending solution 113 % of control | dose: 16.0 mg/kg/injection, schedule: Q01DX001 (sc), vehicle: steriod suspending solution 107 % of control | dose: 32.0 mg/kg/injection, schedule: Q01DX001 (sc), vehicle: steriod suspending solution 114 % of control | dose: 64.0 mg/kg/injection, schedule: Q01DX001 (sc), vehicle: steriod suspending solution 103 % of control | dose: 128.0 mg/kg/injection, schedule: Q01DX001 (sc), vehicle: steriod suspending solution 115 % of control

NC(=O)C1=Cc2cc(Cl)cc(Cl)c2OC1
inactive: [6] 93 % of control | [9] 93 % of control | [14] 98 % of control

O=C1OC(=O)C2C(c3ccccc3)C=CC(c3ccccc3)C12 (stereo not drawn)
inactive: [4] 98 % of control | [6] 108 % of control | [1] 92 % of control | [9] 98 % of control | [2] 108 % of control

CNC(=O)Nc1cccc(C(=O)O)c1
inactive: [21] 98 % of control | [22] 103 % of control | [23] 92 % of control

CCOc1ccc(/C=C\C(=O)O)cc1
inactive: [21] 97 % of control | [22] 102 % of control | [23] 107 % of control

CC1(C)C2CCC1(CS(=O)(=O)O)C(=O)C2.[Ag] (stereo not drawn)
inactive: dose: 3.12 mg/kg/injection, schedule: Q01DX009 (ip), vehicle: saline with Tween-80 92 % of control | dose: 6.25 mg/kg/injection, schedule: Q01DX009 (ip), vehicle: saline with Tween-80 87 % of control | dose: 12.5 mg/kg/injection, schedule: Q01DX009 (ip), vehicle: saline with Tween-80 90 % of control

O=[N+]([O-])c1ccc2c(c1)/C(=N\O)c1cc(Br)ccc1-2
inactive: dose: 100.0 mg/kg/injection, schedule: Q01DX001 (ip), vehicle: carboxymethylcellulose (CMC) 105 % of control | dose: 200.0 mg/kg/injection, schedule: Q01DX001 (ip), vehicle: carboxymethylcellulose (CMC) 105 % of control | dose: 400.0 mg/kg/injection, schedule: Q01DX001 (ip), vehicle: carboxymethylcellulose (CMC) 94 % of control

CC(C)(C)O.[Zr]
inactive: dose: 25.0 mg/kg/injection, schedule: Q01DX009 (ip), vehicle: other 108 % of control | dose: 50.0 mg/kg/injection, schedule: Q01DX009 (ip), vehicle: other 97 % of control | dose: 100.0 mg/kg/injection, schedule: Q01DX009 (ip), vehicle: other 90 % of control | [1] 96 % of control | dose: 200.0 mg/kg/injection, schedule: Q01DX009 (ip), vehicle: other 103 % of control | [2] 98 % of control | [3] 94 % of control

CC([NH-])C(=O)O.O=C(O)CN(CC(=O)O)CC(=O)O.[Co+2]
inactive: dose: 50.0 mg/kg/injection, schedule: Q01DX009 (ip), vehicle: saline 110 % of control | dose: 100.0 mg/kg/injection, schedule: Q01DX009 (ip), vehicle: saline 103 % of control | [1] 104 % of control | dose: 200.0 mg/kg/injection, schedule: Q01DX009 (ip), vehicle: saline 93 % of control | [2] 106 % of control | [3] 100 % of control

NC(=O)N/N=C/c1cc(=O)[nH]c(=O)[nH]1
inactive: [11] 88 % of control | [12] 97 % of control | [24] 97 % of control

ClC(Cl)(Cl)C(Cl)(Cl)c1ccc(C(Cl)(Cl)C(Cl)(Cl)Cl)cc1
inactive: dose: 100.0 mg/kg/injection, schedule: Q01DX009 (ip), vehicle: saline sonified 95 % of control | [16] 89 % of control | dose: 200.0 mg/kg/injection, schedule: Q01DX009 (ip), vehicle: saline sonified 94 % of control | [18] 94 % of control | dose: 400.0 mg/kg/injection, schedule: Q01DX009 (ip), vehicle: saline sonified 94 % of control | [20] 96 % of control

CCCCCOC(=O)c1cccc2c1-c1ccccc1C2=O
inactive: [15] 93 % of control | [17] 98 % of control | [19] 93 % of control

CCCCOP(=O)(OCCCC)OC(C)C(C)=O (stereo not drawn)
inactive: [11] 95 % of control | [1] 102 % of control | [12] 104 % of control | [2] 98 % of control | [24] 101 % of control | [3] 90 % of control

— PubChem BioAssay AID248 (DTP/NCI, 2004)
